The target of test [1] is T1, High affinity nerve growth factor receptor (Homo sapiens, UniProt P04629). The experiment in a line: Inhibition of recombinant His-tagged human TRKA (441 to 796 residues) expressed in baculovirus expression system at 20 uM using 5-FAM-EEPLYWSFPAKKK-CONH2 as substrate preincubated for 1 hr followed by substrate addition in presence of ATP by mobility shift assay relative to control.
Target sequence in this assay (P04629 33-796 limits assumed): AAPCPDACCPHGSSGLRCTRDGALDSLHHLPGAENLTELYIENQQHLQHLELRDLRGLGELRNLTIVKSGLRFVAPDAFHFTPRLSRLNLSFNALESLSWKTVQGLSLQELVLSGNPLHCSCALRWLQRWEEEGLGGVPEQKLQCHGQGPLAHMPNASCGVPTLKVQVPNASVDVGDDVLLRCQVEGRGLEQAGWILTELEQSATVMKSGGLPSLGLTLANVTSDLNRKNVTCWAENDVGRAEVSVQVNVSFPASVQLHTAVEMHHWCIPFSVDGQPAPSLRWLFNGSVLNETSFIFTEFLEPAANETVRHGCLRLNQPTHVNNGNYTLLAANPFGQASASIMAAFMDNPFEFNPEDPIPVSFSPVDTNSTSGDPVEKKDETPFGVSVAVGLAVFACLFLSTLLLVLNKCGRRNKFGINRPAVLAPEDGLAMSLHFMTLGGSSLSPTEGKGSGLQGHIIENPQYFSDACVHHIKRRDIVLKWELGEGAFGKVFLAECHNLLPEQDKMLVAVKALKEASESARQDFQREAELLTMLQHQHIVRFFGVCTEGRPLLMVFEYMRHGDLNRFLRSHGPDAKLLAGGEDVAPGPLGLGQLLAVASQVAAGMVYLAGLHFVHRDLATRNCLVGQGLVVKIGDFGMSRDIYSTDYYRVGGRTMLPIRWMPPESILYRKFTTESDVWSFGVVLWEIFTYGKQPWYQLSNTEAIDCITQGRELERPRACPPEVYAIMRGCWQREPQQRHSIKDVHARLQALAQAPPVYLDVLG

For a further test, the system named is KM12. In words: Cytotoxicity against human KM12 cells assessed as reduction in cell viability incubated for 72 hrs by resazurin based assay. The note with it: KM12, 72 h. The class given is functional. For orientation: Alamar Blue is a resazurin reagent that responds to reducing activity.
In test [2] the target is T1, High affinity nerve growth factor receptor. In words: Inhibition of recombinant His-tagged human TRKA (441 to 796 residues) expressed in baculovirus expression system using 5-FAM-EEPLYWSFPAKKK-CONH2 as substrate preincubated for 1 hr followed by substrate addition in presence of ATP by mobility shift assay.
Target sequence in this assay (P04629 whole entry, the tested form may be a part): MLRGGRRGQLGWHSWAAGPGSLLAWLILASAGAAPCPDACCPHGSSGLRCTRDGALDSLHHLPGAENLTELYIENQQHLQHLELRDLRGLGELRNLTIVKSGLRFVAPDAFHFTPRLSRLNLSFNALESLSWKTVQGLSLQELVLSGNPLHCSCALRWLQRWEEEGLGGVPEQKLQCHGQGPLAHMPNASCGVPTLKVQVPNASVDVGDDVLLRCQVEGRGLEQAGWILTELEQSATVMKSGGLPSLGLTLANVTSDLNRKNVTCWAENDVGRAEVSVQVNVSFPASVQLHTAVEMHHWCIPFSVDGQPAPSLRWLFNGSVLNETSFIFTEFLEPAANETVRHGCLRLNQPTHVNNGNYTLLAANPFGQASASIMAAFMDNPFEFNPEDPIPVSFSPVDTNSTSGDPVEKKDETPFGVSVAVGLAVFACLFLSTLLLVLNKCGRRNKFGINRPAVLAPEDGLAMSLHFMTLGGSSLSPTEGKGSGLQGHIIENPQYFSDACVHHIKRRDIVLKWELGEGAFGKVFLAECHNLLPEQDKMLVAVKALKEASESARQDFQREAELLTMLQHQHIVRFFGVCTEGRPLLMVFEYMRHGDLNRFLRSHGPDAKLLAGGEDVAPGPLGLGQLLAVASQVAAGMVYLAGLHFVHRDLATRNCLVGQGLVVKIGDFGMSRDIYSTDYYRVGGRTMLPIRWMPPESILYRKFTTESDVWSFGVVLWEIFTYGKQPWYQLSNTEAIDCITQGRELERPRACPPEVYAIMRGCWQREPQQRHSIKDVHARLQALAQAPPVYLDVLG

By inhibition is commonly meant the percentage by which the read-out fell short of the control. Broadly, the IC50 is the concentration needed to halve the response being measured.

For `CC(C)(C)c1cc(NC(=O)Cc2ccc(-c3ncnc4ccsc34)cc2)no1`, the inhibition in test [1] turned out to be 18%. In addition, in the test on KM12, the IC50 came to 86.5 µM.
In the case of `O=C(Cc1ccc(Nc2ncnc3ccsc23)cc1)N[C@@H]1CCCC[C@@H]1O`, the IC50 in test [2] is 41.2 µM; with KM12, over 200 µM.
With `O=C(c1ccc(Nc2ncnc3ccsc23)cc1)N1CCCCC1`, the inhibition in test [1] amounted to 16.5%. For the same molecule, the IC50 in the test with KM12 was found to be 150 µM.

(Values after ChEMBL document CHEMBL4813963, “Discovery of pyrazolo-thieno[3,2-d]pyrimidinylamino-phenyl acetamides as type-II pan-tropomyosin receptor kinase (TRK) inhibitors: Design, synthesis, and biological evaluation” (Eur J Med Chem, 2021).)
